Data taken from patent US7358233B2, “Tetronic acid derivative” (Toudai TLO, Ltd, priority 2001, dated 2008).

What was measured:
GRP78 promoter = GRP78 promoter luciferase reporter analysis in HeLa78C6 cells, with tunicamycin-induced endoplasmic reticulum stress; type: cell-based, human
Procedure: Screening for natural substances that may regulate the expression of GRP78 was performed. Specifically, herbal medicines, and respective metabolites of fungus and actinomyces were prepared as test samples. A screening system was prepared as follows. A GRP78 promoter region (−132 to +7) comprising three ERSE was inserted into the KpnI-BglII site of the multicloning site of pGL3-basic vector (Promega), and a luciferase gene was linked as a reporter gene downstream of the GRP78 promoter to construct a vector. […]
The cell suspension (100 μL) was dispensed into each well of a 96-well plate and incubated at 37° C. in 5% CO2 for 6 hours. […] Then, luciferase activity of the cells was measured using a luciferase measurement kit (Luciferase Assay System: Promega, cat# E1501) following the instruction attached to the kit.
The main culture was separated into culture supernatant and mycelial cake by centrifugation. Similar to Example 1, the activities to suppress GRP78 expression were measured by the reporter analysis method for the culture supernatant and mycelial cake product that was obtained by homogenizing the mycelial cake, respectively. […] Then, luciferase activity of the cells was measured using a luciferase measurement kit.
Using pure VST purified in Example 3, its activity to suppress GRP78 promoter expression was quantitated. […]

HT-29 cells = assay: Colony formation of HT-29 cells under endoplasmic reticulum stress conditions; type: cell-based
Procedure: HT-29 cells were pretreated for 30 min with each concentration of VST, and then subjected to stress treatment with each of the endoplasmic reticulum stresses, i.e., tunicamycin, calcium ionophore A23187, glucose starvation and 2-DG, for 18 hours. Subsequently, the cells were cultured for 1 week […], and then colonies were measured by crystal violet staining.

MCF-7 = assay: Direct growth suppression, MTT method; type: cell-based; details: Homo sapiens, MCF7, 24 hours, read-out: IC50 of VST
Excerpt: (§1) In this Example, HeLa cells and various other culture cells were used to measure the survival rate during the above-mentioned reporter analysis and VST addition. Specifically, in addition to HeLa cells (human cervical cancer cells), MCF-7 (human breast cancer cells), PC12NH (rat pheochromocytoma), MDA-MB-231 (human breast cancer cells), TIG-3 (human normal fibroblast cells), HeLa 786C cells (human cervical cancer cells), Saos-2 (telomerase and p53-deficient human cancer cells) and SUSM-1 (telomerase-deficient human cancer cells) were used.
(§2) The direct growth suppression activity of VST on these cells was measured using the MTT method. 100 μL cell suspension (5×10^4/mL) of each of the above-mentioned cells was dispensed into each well of a 96-well plate and cultured for 6 hours at 37° C. After culturing, VST solution diluted stepwise as in Example 4 was added thereto and cultured for another 24 hours. After culturing for 24 hours, 0.05 g/mL MTT solution (10 μL) was added to each well and incubation was performed at 37° C. for 4 hours. The medium was then removed, DMSO (100 μL) was added, and the absorbance at 530 nm was measured (FIG. 8).

HeLa786C = assay: Direct growth suppression, MTT method; type: cell-based; details: Homo sapiens, 24 hours, read-out: IC50 of VST
Excerpt: as §1, §2

XBP1 = assay: Formation of spliced XBP1 in HT1080 transfected with Flag-tagged XBP1; type: cell-based
Excerpt: To elucidate the mechanism of VST to express its activity, the effect of VST on several factors that function in the pathway of endoplasmic reticulum stress response was examined. In particular, Ire1α-XBP1 pathway, a pathway of endoplasmic reticulum stress response and is widely conserved from yeast to mammalian cells, was examined. XBP1 spliced at the mRNA level from a precursor (XBP1 (U)) by Ire1α, that is activated in response to endoplasmic reticulum stress turns into the activated form (XBP1(S)), transfers to the nucleus, and induces transcription of GRP78 by binding to the GRP78 promoter, ERSE.
A plasmid wherein a Flag tag is linked to the cloned XBP1 was transfected into HT1080, and the cell was pretreated for 30 min with VST. 6 hours after imposing each stress, proteasome inhibitor MG132 was added and the cells were cultured for another 6 hours to prepare samples. The full length and spliced XBP1 were detected in the samples using anti-Flag antibody. Examination on the formation of the spliced form XBP1 due to 2-DG treatment is shown in FIG. 16A and that due to tunicamycin treatment is shown in FIG. 16B. Since the spliced form of XBP1 is very rapidly degraded by proteasomes, its detection is difficult. To overcome this problem, proteasome inhibitor MG132 was added. […]

- IC50 (MCF-7): > 100 µM
- IC50 (HeLa786C): 52.9 µM
SMILES: CC/C1=C\C(CO)CC(C)C(OC2CC(O)C(OC3CC(OC)C(OC4CC(O)C(O)C(C)O4)C(C)O3)C(C)O2)C(C)CCCC2(C)C=C(C)C(C)CC23OC(=O)C(=C3O)C(=O)C2(CC)C1C(C)=CC1C(O)CC(=O)C(C)C12 (stereo not drawn) [VST, versipelostatin]
- suppression of the increase of luciferase activity (GRP78 promoter expression) due to tunicamycin (GRP78 promoter; sample added 30 min before tunicamycin 2 μg/mL, 18 hours): suppressed in concordance with the increase in VST concentration
- luciferase expression from the GRP78 promoter, VST alone (GRP78 promoter; without tunicamycin addition): did not affect the expression of luciferase
- cell growth suppression (colony formation) (HT-29 cells; 2-DG treatment 18 hours, 1 week culture (FIG. 11D)): strong cell growth suppression effect
- cell growth suppression (colony formation) (HT-29 cells; glucose starvation 18 hours, 1 week culture (FIG. 11C)): strong cell growth suppression effect
- cell growth suppression (colony formation) (HT-29 cells; tunicamycin treatment 18 hours, 1 week culture (FIG. 11A)): did not show suppression on cell growth
- formation of spliced XBP1 (XBP1; 2-DG treatment, MG132 added (FIG. 16A)): inhibited
- formation of spliced XBP1 (XBP1; tunicamycin treatment, MG132 added (FIG. 16B)): did not inhibit the splicing of XBP1
